In general, IC50 refers to the concentration that inhibits the measured activity by half.

We go through 11 compounds from ChEMBL document CHEMBL1148609, “Orally active purine-based inhibitors of the heat shock protein 90” (J Med Chem, 2006).

The target in this experiment is Heat shock protein HSP 90-alpha (Homo sapiens) (UniProt P07900). As to the kind of experiment: Hsp90 inhibition measured as HER-2 degradation in MCF-7 cells.
With `CCCCn1c(Cc2cc(OC)ccc2OC)nc2c(N)ncnc21`, the IC50 is 12000 nM.

On to `COc1ccc(I)c(Sc2nc3c(N)ncnc3n2CCCNC(C)(C)C)c1`, for which half-maximal inhibition (IC50) was put at 140 nM.

`CCCCn1c(Cc2cc(OC)ccc2Cl)nc2c(N)ncnc21`: the IC50 is 20000 nM. The compound `CCC(CC)NCCCn1c(Sc2cc(OC)ccc2I)nc2c(N)ncnc21` returned a half-maximal inhibitory concentration (IC50) of 210 nM.

For the compound `C#CCCCn1c(Sc2cc(OC)ccc2I)nc2c(N)nc(F)nc21`, it took 360 nM to reach half-maximal inhibition (IC50).

As to `CCCCn1c(Cc2cc(OC)ccc2Br)nc2c(N)ncnc21`, the 50% inhibitory concentration (IC50) amounted to 8000 nM. Then `COc1ccc(I)c(Sc2nc3c(N)ncnc3n2CCC=C(C)C)c1`, with 370 nM; and `CCC(C)NCCCn1c(Sc2cc(OC)ccc2I)nc2c(N)ncnc21` (stereo unspecified), with 210 nM.

In turn, `COc1ccc(I)c(Sc2nc3c(N)ncnc3n2CCCNC(C)C)c1` had an IC50 of 180 nM.

In turn, `CCCCn1c(Sc2cc(OC)ccc2OC)nc2c(N)ncnc21` showed an IC50 of 3500 nM. As for `CCCCn1c(Cc2cc(OC)ccc2I)nc2c(N)ncnc21`, the 50% inhibitory concentration (IC50) is 5000 nM.
